Assay results: PubChem BioAssay (NCI)
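1) Cells in 96-well plates. 2) Compound, 48 h, 5 concentrations. 3) Linear interpolation between surrounding doses. 4) Unreached endpoint = highest concentration. GI50 marks 50% less growth. At the TGI there is no net growth.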

Legend:
Assay in all cases: growth of human tumour cells (NCI), 48 h
A498 renal = test system: A498 renal
HCT-15 colon = test system: HCT-15 colon
IGROV1 ovarian = test system: IGROV1 ovarian
KM12 colon = test system: KM12 colon
OVCAR-5 ovarian = test system: OVCAR-5 ovarian
OVCAR-8 ovarian = test system: OVCAR-8 ovarian
SF-268 CNS = test system: SF-268 CNS
U251 CNS = test system: U251 CNS
UACC-257 melanoma = test system: UACC-257 melanoma
UACC-62 melanoma = test system: UACC-62 melanoma

| Compound | TGI (A498 renal) [µM] | TGI (HCT-15 colon) [µM] | TGI (IGROV1 ovarian) [µM] | TGI (KM12 colon) [µM] | TGI (OVCAR-5 ovarian) [µM] | TGI (OVCAR-8 ovarian) [µM] | TGI (SF-268 CNS) [µM] | TGI (U251 CNS) [µM] | TGI (UACC-257 melanoma) [µM] | TGI (UACC-62 melanoma) [µM] | GI50 (A498 renal) [µM] | GI50 (HCT-15 colon) [µM] | GI50 (IGROV1 ovarian) [µM] | GI50 (KM12 colon) [µM] | GI50 (OVCAR-5 ovarian) [µM] | GI50 (OVCAR-8 ovarian) [µM] | GI50 (SF-268 CNS) [µM] | GI50 (U251 CNS) [µM] | GI50 (UACC-257 melanoma) [µM] | GI50 (UACC-62 melanoma) [µM] |
| --- | --- | --- | --- | --- | --- | --- | --- | --- | --- | --- | --- | --- | --- | --- | --- | --- | --- | --- | --- | --- |
| NCCCN1CCN(CCCNc2ccc3ncn4c5ccccc5c(=O)c2c34)CC1 | 5.63 | > 25 | 8.17 | 13.1 | 19.3 | 19.5 | 6.04 | > 25 | 19.1 | 6.18 | – | – | – | – | – | – | – | – | – | – |
| C1CN(C23OC4(N5CCOCC5)C5C6CC(C7C6C4C72)C53)CCO1 (stereo not given) | > 100 | > 100 | > 100 | > 100 | > 100 | > 100 | > 100 | > 100 | > 100 | > 100 | – | – | – | – | – | – | – | – | – | – |
| CCSc1nn(-c2c3ccccc3nc3ccccc23)c(=S)s1 | > 100 | > 100 | > 100 | > 100 | > 100 | > 100 | > 100 | > 100 | > 100 | > 100 | – | – | – | – | – | – | – | – | – | – |
| O.O=[Se](=O)(O)O.[NH-]C1CCCCC1[NH-].[Pt+2] (stereo not given) | 97 | > 100 | > 100 | > 100 | > 100 | > 100 | > 100 | > 100 | > 100 | 26.4 | 19.4 | 8.39 | 7.98 | 47.2 | 26.7 | 7.55 | 8.09 | 37 | 46.4 | 4.25 |
| CC(=O)Nc1[nH]c(=O)[nH]c(=O)c1N(C(C)=O)C(C)=O | > 100 | > 100 | > 100 | > 100 | > 100 | > 100 | > 100 | > 100 | > 100 | > 100 | – | – | – | – | – | – | – | – | – | – |
| O=C(c1ccccc1)c1ccc2c(c1)N=C(c1ccc(Cl)c(Cl)c1)CC(c1ccc3ccccc3c1)N2 (stereo not given) | > 100 | > 100 | > 100 | > 100 | > 100 | > 100 | > 100 | > 100 | > 100 | > 100 | – | – | – | – | – | – | – | – | – | – |
| Clc1cccc(Cl)c1C1ON=C(c2ccccc2)N1C12CC3CC(CC(C3)C1)C2 (stereo not given) | > 100 | > 100 | > 100 | 30.8 | > 100 | > 100 | > 100 | > 100 | 15.1 | > 100 | – | – | – | – | – | – | – | – | – | – |
| OCC1=C[C@@](COCc2ccccc2)(OCc2ccccc2)[C@@H](OCc2ccccc2)[C@@H]1OCc1ccccc1 | 31.8 | 57.8 | 38.5 | 56.6 | 60.3 | > 100 | > 100 | 25.6 | 67.6 | 39 | – | – | – | – | – | – | – | – | – | – |
| N#Cc1nc(Cc2cccs2)oc1N | > 100 | > 100 | > 100 | > 100 | > 100 | > 100 | > 100 | > 100 | > 100 | > 100 | – | – | – | – | – | – | – | – | – | – |
| c1csc(-c2csc(-c3cccs3)c2)c1 | > 100 | > 100 | > 100 | > 100 | > 100 | > 100 | > 100 | > 100 | > 100 | > 100 | – | – | – | – | – | – | – | – | – | – |
| CC(=O)Nc1oc(C)nc1C#N | > 100 | > 100 | > 100 | > 100 | > 100 | > 100 | > 100 | > 100 | > 100 | > 100 | – | – | – | – | – | – | – | – | – | – |
| O=[N+]([O-])c1ccc(-c2nc3ccccc3o2)cc1 | > 100 | > 100 | > 100 | > 100 | > 100 | > 100 | > 100 | > 100 | > 100 | > 100 | – | – | – | – | – | – | – | – | – | – |
| CC(=O)Oc1ccc(-c2c(OC(C)=O)c(OC(C)=O)c(-c3ccc(OC(C)=O)c(OC(C)=O)c3)c(OC(C)=O)c2OC(C)=O)cc1 | > 100 | 37.3 | 28.8 | 28.1 | 25 | 28.2 | 32.8 | 36.5 | 29.1 | 33.7 | – | – | – | – | – | – | – | – | – | – |
| COC(=O)C[C@H]1[C@]2(C)C3=C(C)[C@H](c4ccoc4)CC3O[C@@H]2[C@@H]2OC(=O)[C@]3(C)CCC(=O)[C@@]1(C)[C@@H]23 (stereo not given in full) | > 100 | > 100 | > 100 | > 100 | 67.3 | > 100 | > 100 | > 100 | > 100 | > 100 | – | – | – | – | – | – | – | – | – | – |
| NC(Cc1ccccc1)C(=O)O (stereo not given) | > 100 | > 100 | > 100 | > 100 | > 100 | > 100 | > 100 | > 100 | > 100 | > 100 | – | – | – | – | – | – | – | – | – | – |
| Cc1ccc2c3ccc4c(c3n(C)c2c1)C(=O)C=CC4=O | > 10 | > 10 | > 10 | > 10 | > 10 | > 10 | > 10 | > 10 | > 10 | > 10 | – | – | – | – | – | – | – | – | – | – |
| CCOC(=O)c1c(C)n(CCN2CCN(C)CC2)c2ccc(OC)cc12 | 73.8 | 95.8 | > 100 | > 100 | > 100 | > 100 | > 100 | > 100 | 31.1 | 30.7 | – | – | – | – | – | – | – | – | – | – |
